From patent publication US20240166617A1, “PHOSPHOINOSITIDE 3 KINASE BETA INHIBITORS AND COMPOSITIONS AND METHODS THEREOF” (Geode Therapeutics Inc., priority 2021, published 2024)
Read-outs that look alike come from different tables or passages of the source.

How the values were obtained:
[1] = target: T1, PIK3Cb_h (Homo sapiens, UniProt P42338); test: Enzyme binding assay (KINOMEscan); settings: Eurofins DiscoveRx
T1 construct: purchased Eurofins DiscoveRx Corporation
Experimental: Kinase enzyme binding affinities of compounds disclosed herein were determined using the KINOMEscan technology performed by Eurofins DiscoveRx Corporation, San Diego, California, USA (www.eurofinsdiscoveryservices.com). Table 2 reports the obtained PIK3β Kd values (nM) of, with the PIK3β Kd being the inhibitor binding constant. Table 3 reports the obtained Kd values (nM), with the Kd being the inhibitor binding constant: […]

[2] = test system: phosphorylation of AKT in HCC70 cells; test: Cellular assay: phosphorylation of AKT in HCC70 cells (western blotting); type: cell-based; settings: Homo sapiens, HCC70, 1 h, HCC70 cells, compound 500 nM, 60 min, inhibition of Akt activity from band intensities
Summary of the method: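 HCC70 cells treated with compound at 500 nM (0.1% DMSO control) for 60 min at 37 °C; pAKT Ser473 and Thr308 plus total AKT measured by western blot with fluorescent detection. Inhibition from band intensities, binned as + (20–60%), ++ (60–80%), +++ (80–90%), ++++ (>90%).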

[3] = read-out: Index of AI (HCC70) p-AKT Thr 308
[4] = read-out: Index of AI (HCC70) p-AKT ser 473

T1 sequence (P42338 whole entry): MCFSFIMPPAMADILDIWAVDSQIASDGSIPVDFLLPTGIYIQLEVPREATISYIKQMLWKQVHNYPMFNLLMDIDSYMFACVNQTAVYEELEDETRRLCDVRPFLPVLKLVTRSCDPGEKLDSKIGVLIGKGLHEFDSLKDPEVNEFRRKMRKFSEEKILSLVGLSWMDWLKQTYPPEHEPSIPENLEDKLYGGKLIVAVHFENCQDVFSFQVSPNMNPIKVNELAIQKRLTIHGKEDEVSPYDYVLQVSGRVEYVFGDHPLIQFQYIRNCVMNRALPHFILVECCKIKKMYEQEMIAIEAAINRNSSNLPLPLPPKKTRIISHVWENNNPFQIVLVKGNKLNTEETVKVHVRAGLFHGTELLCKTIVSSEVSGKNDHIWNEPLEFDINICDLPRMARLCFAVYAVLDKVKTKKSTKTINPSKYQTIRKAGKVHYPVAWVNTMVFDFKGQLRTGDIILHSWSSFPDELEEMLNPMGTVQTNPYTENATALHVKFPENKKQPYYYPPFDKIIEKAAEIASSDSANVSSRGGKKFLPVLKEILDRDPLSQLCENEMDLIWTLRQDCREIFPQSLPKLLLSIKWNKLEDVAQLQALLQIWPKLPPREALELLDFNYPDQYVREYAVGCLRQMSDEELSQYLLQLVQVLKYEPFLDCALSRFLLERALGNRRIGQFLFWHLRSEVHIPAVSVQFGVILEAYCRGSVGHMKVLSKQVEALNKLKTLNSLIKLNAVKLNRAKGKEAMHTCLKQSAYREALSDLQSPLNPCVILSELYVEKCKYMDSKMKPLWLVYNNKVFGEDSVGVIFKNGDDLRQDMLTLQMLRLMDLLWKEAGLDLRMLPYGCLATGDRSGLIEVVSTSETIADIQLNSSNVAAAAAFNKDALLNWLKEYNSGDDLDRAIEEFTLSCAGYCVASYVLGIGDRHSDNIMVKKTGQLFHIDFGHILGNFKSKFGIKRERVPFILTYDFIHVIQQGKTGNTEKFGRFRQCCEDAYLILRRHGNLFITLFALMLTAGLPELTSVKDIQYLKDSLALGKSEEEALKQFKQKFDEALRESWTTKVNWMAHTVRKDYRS

CC(Nc1cc(F)cc(F)c1)c1cc(C(=O)N2CC[C@H](N(C)C)C2)cc2c(=O)cc(N3CCOCC3)oc12 (stereo partly drawn) [Compound 30, 8-(1-((3,5-difluorophenyl)amino)ethyl)-6-((S)-3-(dimethylamino)pyrrolidine-1-carbonyl)-2-morpholino-4H-chromen-4-one] was tested, and the Kd [1] was 0.32 nM, the inhibition at 0.5 µM [2, 3] was 80 to 90% and the inhibition at 0.5 µM [2, 4] was 80 to 90%.

With CN(C)C(=O)c1cc(CN2CC(C)(C)c3c(F)cc(F)cc32)c2oc(N3CCOCC3)cc(=O)c2c1 [Compound 34, 8-((4,6-difluoro-3,3-dimethylindolin-1-yl)methyl)-N,N-dimethyl-2-morpholino-4-oxo-4H-chromene-6-carboxamide] the Kd [1] was 0.37 nM, the inhibition at 0.5 µM [2, 3] was 80 to 90% and the inhibition at 0.5 µM [2, 4] was 80 to 90%.

CC1Cc2c(F)cc(F)cc2N1C(C)c1cc(C(=O)N(C)C)cc2c(=O)cc(N3CCOCC3)oc12 (stereo not drawn) [Compound 38, 8-(1-(4,6-difluoro-2-methylindolin-1-yl)ethyl)-N,N-dimethyl-2-morpholino-4-oxo-4H-chromene-6-carboxamide] gave a Kd [1] of 0.52 nM, an inhibition at 0.5 µM [2, 3] greater than 90% and an inhibition at 0.5 µM [2, 4] greater than 90%.

CN(C)CCNC(=O)c1cc(CN2CCc3c(F)cc(F)cc32)c2oc(N3CCOCC3)cc(=O)c2c1 [Compound 39, 8-((4,6-difluoroindolin-1-yl)methyl)-N-(2-(dimethylamino)ethyl)-2-morpholino-4-oxo-4H-chromene-6-carboxamide] gave a Kd [1] of 0.072 nM, an inhibition at 0.5 µM [2, 3] greater than 90% and an inhibition at 0.5 µM [2, 4] greater than 90%.

Work on O=C(c1cc(CN2CCc3c(F)cc(F)cc32)c2oc(N3CCOCC3)cc(=O)c2c1)N1CCCC1 [Compound 42, 8-((4,6-difluoroindolin-1-yl)methyl)-2-morpholino-6-(pyrrolidine-1-carbonyl)-4H-chromen-4-one] yielded a Kd [1] of 0.26 nM, an inhibition at 0.5 µM [2, 3] greater than 90% and an inhibition at 0.5 µM [2, 4] greater than 90%.

Work on CN1CCN(C(=O)c2cc(CN3CCc4c(F)cc(F)cc43)c3oc(N4CCOCC4)cc(=O)c3c2)CC1 [Compound 44, 8-((4,6-difluoroindolin-1-yl)methyl)-6-(4-methylpiperazine-1-carbonyl)-2-morpholino-4H-chromen-4-one] yielded a Kd [1] of 1.3 nM, an inhibition at 0.5 µM [2, 3] of 80 to 90% and an inhibition at 0.5 µM [2, 4] of 80 to 90%.

Work on CC(Nc1cc(F)cc(F)c1)c1cc(C(=O)N2CC(N(C)C)C2)cn2c(=O)cc(N3CCOCC3)nc12 (stereo not drawn) [Compound 49, 9-(1-((3,5-difluorophenyl)amino)ethyl)-7-(3-(dimethylamino)azetidine-1-carbonyl)-2-morpholino-4H-pyrido[1,2-a]pyrimidin-4-one] yielded a Kd [1] of 0.67 nM, an inhibition at 0.5 µM [2, 3] of 60 to 80% and an inhibition at 0.5 µM [2, 4] of 60 to 80%.

Work on C[C@@H](Nc1cc(F)cc(F)c1)c1cc(C(=O)N2CC[C@@H](N(C)C)C2)cn2c(=O)cc(N3CCOCC3)nc12 [Compound 50, 9-((R)-1-((3,5-difluorophenyl)amino)ethyl)-7-((R)-3-(dimethylamino)pyrrolidine-1-carbonyl)-2-morpholino-4H-pyrido[1,2-a]pyrimidin-4-one] yielded a Kd [1] of 0.11 nM, an inhibition at 0.5 µM [2, 3] greater than 90% and an inhibition at 0.5 µM [2, 4] greater than 90%.

C[C@@H](Nc1cc(F)cc(F)c1)c1cc(C(=O)N2CC[C@H](N(C)C)C2)cn2c(=O)cc(N3CCOCC3)nc12 [Compound 51, 9-((R)-1-((3,5-difluorophenyl)amino)ethyl)-7-((S)-3-(dimethylamino)pyrrolidine-1-carbonyl)-2-morpholino-4H-pyrido[1,2-a]pyrimidin-4-one] was tested, and the Kd [1] was 0.12 nM, the inhibition at 0.5 µM [2, 3] was greater than 90% and the inhibition at 0.5 µM [2, 4] was greater than 90%.

For Cc1cc(C(C)N2c3cc(F)cc(F)c3CC2C)c2nc(N3CCOCC3)cc(=O)n2c1 (stereo not drawn) [Compound 58, 9-(1-(4,6-difluoro-2-methylindolin-1-yl)ethyl)-7-methyl-2-morpholino-4H-pyrido[1,2-a]pyrimidin-4-one], the Kd [1] was 2 nM, the inhibition at 0.5 µM [2, 3] was 80 to 90% and the inhibition at 0.5 µM [2, 4] was 80 to 90%.

Work on Cc1cc(C(C)N2CCc3c(F)cc(F)cc32)c2nc(N3CCOCC3)cc(=O)n2c1 (stereo not drawn) [Compound 59, 9-(1-(4,6-difluoroindolin-1-yl)ethyl)-7-methyl-2-morpholino-4H-pyrido[1,2-a]pyrimidin-4-one] yielded a Kd [1] of 0.61 nM, an inhibition at 0.5 µM [2, 3] of 80 to 90% and an inhibition at 0.5 µM [2, 4] of 80 to 90%.
